Values joined by “and” are separate entries in the source; they are usually repeats but may differ in a detail not shown here. Equal values may be shown once.
Assays:
neovascularisation = test: Mouse anti-angiogenesis assay (bFGF sponge implant); format: in vivo; conditions: for neovascularisation in mice (percent inhibition): Days 3-9
Description: NMRI female mice (SPF Bom:NMRI) weighing 25-27 g were obtained from M&B, Ejby, Lille Skensved, Denmark. They were housed in a facility where light was controlled on a 12 hour light-dark cycle. […] The animals were fed a pelleted rodent diet (Altromin 1324, Brogarden, Denmark) ad libitum and had free access to tap water. All animals were observed daily for clinical signs.
Slow-release pellets containing 400 ng of human basic fibroblast growth factor (Innovative Research of America, Florida, USA) were circular and with a diameter of 1.5 mm. The angiogenic peptide was guarantied by the supplier to be released over a period of 10 days.
The mice were anaesthetized using inhalation anaesthesia (halothane/N2O and oxygen). The skin of the back was shaved using an electric shaver and the skin was disinfected using 70% ethanol. A 5 mm incision was made transversely in close proximity to the shoulder blades and a 2 cm pocket reaching caudally to the pelvic region was created by blunt dissection, carefully separating the skin from the fascie. A polyurethane sponge with the dimension of 8×5×3 mm containing a slow-release pellet of 400 ng bFGF was placed at the caudal end of the pocket and the incision was closed by a single or double invert suture using Perma-Hand Seide 4/0 (Johnson & Johnson, Brussels, Belgium). The animals were treated by an analgesic subcutaneous injection of carprofen 2 mg/kg.
The angiogenic response was quantitated as previously described (Lichtenberg et al., 1997, 1999 & 2002). Briefly, twenty minutes before euthanasia 1 μCi of ^125I-labelled immuno-globulin (Amersham, UK) in 50 μl of 0.9% NaCl was injected intravenously into a tail vein. The animals were euthanised by O2/CO2 asphyxiation and the skin overlying the sponge implant was removed. The sponge implant with the pellet was placed in a plastic vial containing 4% formalin and the ^125I-activity was measured in a γ-counter. Differences in angiogenic response measured as ^125I-activity in cpm were assessed by Student's t-test, grouped data, with P<0.05 regarded as statistically significant. Data was expressed as means±SEM.
Three separate experiments were conducted: Two experiments were performed with Compound a and one experiment was performed with Compound b. In the first two experiments with Compound a, 3 groups each comprising 5 animals was treated orally with Compound a at the dose levels of 0 (saline), 5 and 10 mg/kg/day (experiment 1) and with 20 and 40 mg/kg/day (experiment 2). In the third experiment, 3 groups each comprising 6 animals was treated orally with the vehicle (saline) and 80 mg/kg/day of Compound a. In all experiments the animals were treated from Days 3-9 and killed at day 10.

B16/F10 melanoma cells = test: Mouse metastasis assay; format: in vivo, mice; conditions: for Colony Count (B16 melanoma lung colonies): day 14, mean ± SEM; for % Reduction of melanoma lung colonies vs vehicle: C57BL/6 mice
Text: Female C57BL/6 mice were supplied and delivered by Charles River UK Ltd. The animals were approximately 6 weeks of age at the start of the study. The body weights at the start of dosing were in the range 10-21 g. The mice were housed in solid-bottomed plastic cages, containing wood shavings, in groups of up to 10. During acclimatization, the rooms and cages were cleaned at regular intervals to maintain hygiene. The mice were fed an expanded rodent diet ad libitum and allowed free access to mains tap water. […] (McKay, 2002).
Data was expressed as means±SEM and analysed using appropriate statistical methods. Statistical significance was assumed when P<0.05.
Two separate studies were conducted: One was performed with Compound a (experiment 1) and one with Compound b (experiment 2). In each study there were 4 treatment groups. The treatment groups were as follows:
Treatments for groups 24 were administered orally, by gavage. The dose volume used was 20 ml/kg for groups 2 and 4 and 15 ml/kg for group 3.
C57BU6 mice were injected intravenously, via a tail vein, with 0.1 ml of a suspension of B16/F10 melanoma cells (approximately 3×10^5 cells/mouse) on day 0. With the exception of the untreated group, animals were dosed orally, by gavage, or intravenously, according to their allocated treatment group once daily, from day −2 to day 10 (13 administrations). The animals were killed on day 14 (14 days after injection of the tumour cells). The lungs from each animal were removed and weighed prior to fixing in Bouin's solution.

HUVEC = test: Cell morphology and proliferation assay; format: cell-based
Description: Cell Morphology and Proliferation Assay
One week before the assay, a vial with HUVEC (passage 1) was thawed and cultured (after a split ratio of 1:3) to confluence (passage 2). The confluent culture of HUVEC was detached by trypsin/EDTA solution, and allowed to adhere and spread at cell density of 10, 50 and 100% confluency on gelatine-coated dishes in M199-HEPES medium supplemented with 10% heat-inactivated NBCS, 10% human serum and penicillin/streptomycin. After 18 h the HUVEC were preincubated with the test compounds for 4 hours. Then the HUVEC were washed and restimulated in the absence or presence of the test compounds and the reference compounds with 2.5 ng/ml FGF-2 in M199-HEPES, penicillin/streptomycin, 10% NBCS, 10% human serum and 0.1% DMSO in triplicate wells for 5 (10% confluency) or 3 days (50 and 100% confluency), with or without the test compounds. The cell number was determined by image analysis (P. Koolwijk, 2001)
To investigate the mode of action of the compound on proliferating and non-proliferating HUVEC, experiments were performed on 10%, 50% and 100% confluent monolayers of HUVEC. The 10% and 50% confluent HUVEC monolayers represent the status of angiogenic endothelial cells able to proliferate and migrate when stimulated. The 100% HUVEC monolayers represent the quiescent character of the endothelial cells in the existing blood vessel. The 4-hour preincubation experiments were performed to be able to discriminate between general toxicity and the induction of apoptosis.

[1] = system: HUVEC, fibroblasts, Mel 57 and T47D cells; test: Cell-specificity assay: incorporation of [3H]thymidine; format: cell-based; conditions: bFGF-induced HUVEC and fibroblast proliferation vs NBCS-induced Mel 57 and T47D proliferation; FIG. 1
Description: Cell-Specificity Assay: Incorporation of [^3H]Thymidine
Confluent cultures of HUVEC, fibroblasts, Mel 57 and T47D cells were detached by trypsin/EDTA solution, and allowed to adhere and spread at an appropriate cell density on gelatine-coated dishes in M199-HEPES medium or DMEM-HEPES medium both supplemented with 10% heat-inactivated new born calve serum (NBCS) and penidillin/streptomycin. After 18 h the HUVEC and fibroblasts were stimulated with 2.5 ng/ml FGF-2 in M199-HEPES, penicillin/streptomycin, 10% NBCS and 0.1% DMSO in duplicate wells, with or without the test compounds. […] Subsequently, the cells were washed with PBS, [3H]-labelled DNA were fixed with methanol, and precipitated in 5% trichloroacetic-acid, and finally dissolved in 0.5 ml 0.3 M NaOH and counted in a liquid scintillation counter.
All outcome measures were measured in singular, i.e. one measurement per culture well. The proliferation of HUVEC, fibroblast, Mel 57, and T47D tumor cells was expressed as mean±range [3H]-thymidine incorporation (dpm) of duplicate wells.
The percentage of inhibition of FGF-2-induced HUVEC and fibroblast proliferation by the compounds was calculated as follows: [formula] […] The percentage of inhibition of the Mel 57 and T47D tumor cell proliferation by the compounds will be calculated as follows: [formula] […]

[2] = 60 mg/kg p.o. once daily day -2 to day 10, C57BL/6 mice
[3] = 80 mg/kg p.o. once daily day -2 to day 10, C57BL/6 mice

**Q.** O=C(Nc1ccc([N+](=O)[O-])cc1)Nc1ccc(Br)cc1-c1nnn[nH]1 [Compound a, N-4-Nitrophenyl-N′-[4-bromo-2-(1-H-tetrazol-5-yl)phenyl]urea] was tested. Which “neovascularisation in mice (percent inhibition)” value (neovascularisation; 5 mg/kg/day orally) did it give?
**A.** 15%

**Q.** What about the “neovascularisation in mice (percent inhibition)” value (neovascularisation; 20 mg/kg/day orally) of the same compound?
**A.** 28%

**Q.** And the “No Effect Level (NOEL)” value (neovascularisation; oral, neovascularisation in mice)?
**A.** 5 mglkg/day

**Q.** What about the “Colony Count (B16 melanoma lung colonies)” value (from here on “Colony Count”) (B16/F10 melanoma cells; [2]) of the same compound?
**A.** 64.68 ± 2.65

**Q.** What about the “% Reduction of melanoma lung colonies vs vehicle” value (“% Reduction” for short) (B16/F10 melanoma cells; 60 mg/kg p.o.) of the same compound?
**A.** 17% and 17.38%

**Q.** And the “Colony Count” value (B16/F10 melanoma cells; [3])?
**A.** 61.85 ± 2.89

**Q.** What about the “% Reduction” value (B16/F10 melanoma cells; 80 mg/kg p.o.) of the same compound?
**A.** 21%

**Q.** And the “inhibition of HUVEC proliferation” value (HUVEC; 4-hour preincubation, compound then removed for the rest of the stimulation period)?
**A.** not able to inhibit HUVEC proliferation significantly

**Q.** And the “cytotoxicity (HUVEC morphology, floating dead cells)” value (HUVEC; 100% confluent monolayers, culture periods with the compound)?
**A.** no change of HUVEC morphology and the amount of floating dead cells

**Q.** What about the “cytotoxicity (cell death, floating cells in the media)” value (HUVEC; HUVEC, 4-hour preincubation period) of the same compound?
**A.** No signs of any cytotoxicity

**Q.** And the “inhibition of HUVEC proliferation” value (HUVEC; continuous presence of the compound, 10% confluent monolayers)?
**A.** clear inhibitory effect

**Q.** What about the “inhibition of HUVEC proliferation” value (HUVEC; continuous presence of the compound, 50% confluent monolayers) of the same compound?
**A.** slightly observed

**Q.** And the “inhibition of HUVEC proliferation” value (HUVEC; continuous presence of the compound, 100% confluent monolayers)?
**A.** no effect

**Q.** And the “cell-specificity of inhibition of proliferation” value [1]?
**A.** more potent inhibitor of the bFGF-induced HUVEC and fibroblast proliferation

**Q.** With O=C(Nc1cc(C(F)(F)F)cc(C(F)(F)F)c1)Nc1ccc(Br)cc1-c1nnn[nH]1 [Compound b, N-3,5-Di(trifluoromethyl)phenyl-N′-[4-bromo-2-(1-H-tetrazol-5-yl)phenyl]urea] as the compound, how does the “tolerability (signs of toxicity, body weight gain)” value (neovascularisation; mice, selected dose levels, oral) read?
**A.** no signs of toxicity or changes of the body weight gain

**Q.** And the “Colony Count” value (B16/F10 melanoma cells; [2])?
**A.** 41.55 ± 9.55

**Q.** And the “% Reduction” value (B16/F10 melanoma cells; 60 mg/kg p.o.)?
**A.** 36% and 36.45%

**Q.** And the “Colony Count” value (B16/F10 melanoma cells; [3])?
**A.** 36.65 ± 5.82

**Q.** And the “% Reduction” value (B16/F10 melanoma cells; 80 mg/kg p.o.)?
**A.** 44% and 43.97%
